Test results from paper PMC8908507 (ACS Omega, 2022).
Entries after “also recorded” stand apart in the source; their conditions may differ.

Assays:
[1] = test system: human MAO-B; settings: read-out: IC50 human MAO-B; cited from earlier work
[2] = molecular target: T1, MAO-B (Homo sapiens, UniProt P27338); experiment: MAO-B inhibition, recombinant enzyme, benzylamine substrate; type: biochemical
T1 sequence (P27338 1-520): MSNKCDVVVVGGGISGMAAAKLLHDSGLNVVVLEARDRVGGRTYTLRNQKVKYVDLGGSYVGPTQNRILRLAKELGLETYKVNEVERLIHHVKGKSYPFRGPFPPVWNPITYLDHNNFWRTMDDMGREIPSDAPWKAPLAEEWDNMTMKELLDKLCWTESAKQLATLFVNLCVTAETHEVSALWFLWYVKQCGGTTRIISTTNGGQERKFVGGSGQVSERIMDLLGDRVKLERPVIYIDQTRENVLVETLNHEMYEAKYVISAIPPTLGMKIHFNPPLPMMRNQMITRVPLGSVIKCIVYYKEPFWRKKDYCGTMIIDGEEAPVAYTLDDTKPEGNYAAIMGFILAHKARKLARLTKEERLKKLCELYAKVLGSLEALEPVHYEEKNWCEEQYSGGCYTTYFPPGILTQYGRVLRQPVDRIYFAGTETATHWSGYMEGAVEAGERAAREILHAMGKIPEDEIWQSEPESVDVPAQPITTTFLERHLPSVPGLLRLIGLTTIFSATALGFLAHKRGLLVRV

[3] = molecular target: T2, MAO-A (Homo sapiens, UniProt P21397); experiment: biochemical
T2 sequence (P21397 1-527): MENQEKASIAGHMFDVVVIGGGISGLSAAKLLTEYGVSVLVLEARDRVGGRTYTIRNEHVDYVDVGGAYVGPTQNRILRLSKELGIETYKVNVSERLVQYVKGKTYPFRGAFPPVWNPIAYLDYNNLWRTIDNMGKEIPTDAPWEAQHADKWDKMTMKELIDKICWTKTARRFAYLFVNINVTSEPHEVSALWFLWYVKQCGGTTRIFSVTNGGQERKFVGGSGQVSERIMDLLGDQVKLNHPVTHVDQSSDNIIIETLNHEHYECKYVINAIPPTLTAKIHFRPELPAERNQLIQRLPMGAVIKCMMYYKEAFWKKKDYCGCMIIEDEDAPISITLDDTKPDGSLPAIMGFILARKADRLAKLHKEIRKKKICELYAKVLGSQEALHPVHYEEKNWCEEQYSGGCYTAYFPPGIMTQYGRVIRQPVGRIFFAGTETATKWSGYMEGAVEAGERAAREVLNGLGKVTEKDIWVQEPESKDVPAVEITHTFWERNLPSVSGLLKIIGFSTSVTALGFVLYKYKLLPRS

[4] = molecular target: AChE (Electrophorus electricus, UniProt O42275); experiment: AChE inhibition; settings: 10 μM
Chain of AChE (O42275 24-633): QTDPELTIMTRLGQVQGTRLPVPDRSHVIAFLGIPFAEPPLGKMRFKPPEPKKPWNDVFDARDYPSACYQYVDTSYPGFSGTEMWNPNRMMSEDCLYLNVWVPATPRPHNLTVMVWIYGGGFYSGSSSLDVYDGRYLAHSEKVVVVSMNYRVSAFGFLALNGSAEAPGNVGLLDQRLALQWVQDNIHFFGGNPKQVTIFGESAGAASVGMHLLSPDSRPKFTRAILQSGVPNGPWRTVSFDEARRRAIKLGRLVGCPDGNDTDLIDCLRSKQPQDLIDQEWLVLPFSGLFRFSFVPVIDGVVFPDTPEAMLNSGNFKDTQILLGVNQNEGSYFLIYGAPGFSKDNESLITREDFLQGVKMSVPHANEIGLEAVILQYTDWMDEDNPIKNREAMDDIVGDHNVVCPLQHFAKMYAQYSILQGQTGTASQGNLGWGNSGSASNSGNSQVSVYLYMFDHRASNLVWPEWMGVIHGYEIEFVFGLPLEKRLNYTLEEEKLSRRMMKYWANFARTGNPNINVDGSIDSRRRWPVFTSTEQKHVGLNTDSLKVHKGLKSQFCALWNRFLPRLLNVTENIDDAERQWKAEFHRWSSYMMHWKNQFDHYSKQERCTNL

[5] = molecular target: T1, MAO-B; experiment: MAO-B enzyme kinetics, Lineweaver–Burk and secondary plots; type: biochemical
[6] = test system: Vero cells; experiment: Intracellular ROS assay in H2O2-treated Vero cells; type: cell-based, African green monkey; settings: 24 h drug treatment, vs H2O2-treated control
[7] = molecular target: BACE1 (Homo sapiens, UniProt P56817); experiment: biochemical; settings: read-out: residual activity (%) BACE1
Chain of BACE1 (P56817 46-501): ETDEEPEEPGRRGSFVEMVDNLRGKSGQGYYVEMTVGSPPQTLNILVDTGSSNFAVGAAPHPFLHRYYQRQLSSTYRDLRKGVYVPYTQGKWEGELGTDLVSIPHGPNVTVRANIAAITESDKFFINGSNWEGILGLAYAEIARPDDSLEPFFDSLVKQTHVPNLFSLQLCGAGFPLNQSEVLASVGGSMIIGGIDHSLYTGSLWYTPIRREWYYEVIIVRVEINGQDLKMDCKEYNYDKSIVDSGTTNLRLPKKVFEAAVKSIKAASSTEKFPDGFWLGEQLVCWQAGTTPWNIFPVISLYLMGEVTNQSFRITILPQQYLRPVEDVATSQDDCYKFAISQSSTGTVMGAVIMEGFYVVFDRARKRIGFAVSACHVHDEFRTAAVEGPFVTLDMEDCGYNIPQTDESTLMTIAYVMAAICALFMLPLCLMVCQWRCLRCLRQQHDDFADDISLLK

[8] = test system: Vero cells; experiment: Cytotoxicity on Vero cells, MTT method; type: cell-based, African green monkey; settings: 100 μg/mL, 24 h
[9] = Cytotoxicity on Vero cells, MTT method; type: cell-based, African green monkey; settings: African green monkey, Vero cells (normal kidney epithelial cell line)
[10] = molecular target: T1, MAO-B; experiment: Reversibility of MAO-B inhibition by dialysis; type: biochemical
[11] = molecular target: BChE (Equus caballus, UniProt P81908); settings: 10 μM
Chain of BChE (P81908 whole entry): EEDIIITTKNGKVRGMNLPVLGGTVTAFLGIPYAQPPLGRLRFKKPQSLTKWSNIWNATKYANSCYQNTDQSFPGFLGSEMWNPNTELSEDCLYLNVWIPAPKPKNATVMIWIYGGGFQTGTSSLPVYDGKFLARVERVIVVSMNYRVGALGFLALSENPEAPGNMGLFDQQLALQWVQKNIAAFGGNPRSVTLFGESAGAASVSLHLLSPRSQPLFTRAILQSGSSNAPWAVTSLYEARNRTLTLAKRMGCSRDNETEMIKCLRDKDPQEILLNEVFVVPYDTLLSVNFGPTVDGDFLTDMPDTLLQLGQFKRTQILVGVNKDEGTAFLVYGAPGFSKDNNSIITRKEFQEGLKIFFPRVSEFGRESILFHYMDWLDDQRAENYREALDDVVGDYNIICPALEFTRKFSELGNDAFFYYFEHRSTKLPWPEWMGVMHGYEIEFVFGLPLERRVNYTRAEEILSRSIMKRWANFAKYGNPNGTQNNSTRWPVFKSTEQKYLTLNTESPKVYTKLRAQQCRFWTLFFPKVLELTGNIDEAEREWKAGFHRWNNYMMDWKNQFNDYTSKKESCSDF

Row | SMILES | IC50 [1] [nM] | SI (MAO-B compared with MAO-A) ([2]; IC50 (MAO-A)/IC50 (MAO-B)) | IC50 ([2]; IC50 MAO-B) [nM] | remaining activity at 1 µM ([2]; read-out: residual activity (%) MAO-B) [%] | times higher inhibitory activity than pargyline (MAO-B) ([2]; vs reference irreversible MAO-B inhibitor pargyline) [times] | times more potent than lazabemide (MAO-B) ([2]; vs reference reversible MAO-B drug lazabemide) [times] | IC50 [3] [nM] | remaining activity at 10 µM ([3]; read-out: residual activity (%) MAO-A) [%] | residual activity (%) AChE [4] [%] | Ki [5] [nM] | inhibition type for MAO-B ([5]; Lineweaver–Burk plots) | intracellular ROS scavenging [6] | remaining activity at 10 µM [7] [%] | toxicity by cellular morphology, phase-contrast microscopy [8] | viability at 24 h, 40 μg/mL [9] [%] | relative MAO-B activity, dialyzed (AD) ([10]; MK6/MK12 6.0 nM, lazabemide 0.22 μM, pargyline 0.28 μM, after dialysis) [%] | relative MAO-B activity, undialyzed (AU) ([10]; MK6/MK12 6.0 nM, lazabemide 0.22 μM, pargyline 0.28 μM, preincubation 30 min) [%] | reversibility of MAO-B inhibition ([10]; dialysis) | residual activity (%) BChE [11] [%]
1 | O=C(/C=C/C=C/c1ccc(Cl)cc1)c1ccc(O)cc1O [(2E,4E)-5-(4-chlorophenyl)-1-(2,4-dihydroxyphenyl)penta-2,4-dien-1-one] | 11.3 | – | – | – | – | – | – | – | – | – | – | – | – | – | – | – | – | – | –
2 | COc1ccc(C(=O)/C=C/C=C/c2ccc(Cl)cc2)c(O)c1 [(2E,4E)-5-(4-chlorophenyl)-1-(2-hydroxy-4-methoxyphenyl)penta-2,4-dien-1-one] | 4.51 | – | – | – | – | – | – | – | – | – | – | – | – | – | – | – | – | – | –
3 | COc1ccc(/C=C/C=C/C(=O)c2ccc(F)cc2)cc1 [MK12, (2E,4E)-1-(4-Fluorophenyl)-5-(4-methoxyphenyl)penta-2,4-dien-1-one] | – | 1780.5 | 3.22 ± 0.04 | -2.71 | 44 | 34 | 5700 ± 720 | 40.9 ± 1.24 | 93.3 ± 0.73 | 3 ± 0.27 | competitive inhibitors | significant scavenging effect of reactive oxygen species; also recorded: significant ROS scavenging effect | 81.4 ± 1.03 | most toxic of the four tested compounds | > 80 | 74.7 | 33.4 | reversible inhibitors | 94.6 ± 1.11
